Test results reported in PubChem BioAssay (NCI).
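All cell lines were grown in 96-well plates and treated with compound for 48 hours. Abbreviation: GI50, concentration required for 50% inhibition of growth. TGI: concentration producing complete growth inhibition.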

What was measured:
[1] = test system: MDA-MB-435; assay: growth of human tumour cells (NCI), 48 h
[2] = test system: DU-145 prostate; assay: growth of human tumour cells (NCI), 48 h

Row | Compound | GI50 [1] [µM] | TGI [1] [µM] | GI50 [2] [µM] | TGI [2] [µM]
1 | O=[N+]([O-])c1ccc(S(=O)Cc2ccccc2)c([N+](=O)[O-])c1 (stereo not given) | 2.51 | 7.69 | 11 | 23
2 | COc1cc2c(c(OC)c1OC)-c1ccc(N)c(=O)cc1[C@@H](NC(C)=O)CC2 | < 0.01 | – | 0.0291 | 0.0951
3 | CCn1c(C(=O)N(C2CC2)C2CC2)cc2c3c(ncn3C)c(Nc3cc(C)n(C)n3)nc21 | > 100 | > 100 | > 100 | > 100
4 | CCOC(=O)C1=C(C(=O)c2ccc(C)cc2)C(c2cccc([N+](=O)[O-])c2)C(C(=O)c2ccc(C)cc2)=C(C(=O)OCC)N1 | – | 33.2 | – | 32.2
5 | O=C(Nc1ccc(F)cc1)c1ccc(NC2=C(Cl)C(=O)N(Cc3ccccc3)C2=O)cc1 | 7.07 | 26.3 | 6.48 | 29.8
6 | O=Nc1c(-c2c(O)[nH]c3ccc([N+](=O)[O-])cc23)[nH]c2ccc(O)cc12 | 0.406 | > 57.8 | 0.305 | –
7 | CCN(CC)CCNc1ccc([N+](=O)[O-])c2sc3ccccc3c(=O)c12 | 0.901 | 2.32 | 0.766 | 2.05
8 | C=CCN(/C=C1/C(=O)O[C@H](COC)[C@@]2(C)C1=C(O)C(=O)C1=C2[C@H](OC(C)=O)C[C@]2(C)C(=O)CC[C@@H]12)CC=C | 2.68 | > 10 | 2.43 | > 10
9 | O=C1c2ccc([N+](=O)[O-])cc2-c2c1c1ccccc1c(=O)n2CCCNCCCNCCCn1c2c(c3ccc([N+](=O)[O-])cc3c1=O)C(=O)c1ccccc1-2 | 3.88 | > 46.6 | 0.667 | 2.03
10 | Cc1ccc(/C(=N\N=C(N)N)c2ccccc2)cc1 | 0.203 | 0.631 | 0.41 | 10.4
11 | CN1CCN(c2ccc(NC(=O)c3nc4ccc5[nH]ncc5c4c4c3CCCC4)cc2C(F)(F)F)CC1 | 0.899 | 1.74 | 1.03 | 2.15
12 | CCCc1c(CC)c(=N)c2ccccc2n1C | > 100 | > 100 | > 100 | > 100
13 | O=C(/C=C/C12c3ccccc3C(c3ccccc31)C1C(=O)N(c3ccccc3)C(=O)C12)c1ccccc1 (stereo not given) | 2.56 | > 100 | 2.14 | 6.03
14 | CCC(=O)O[C@H]1CC[C@H]2[C@@H]3CC[C@H]4CC(=O)[C@H](C)C[C@]4(C)[C@H]3CC[C@]12C | 48.7 | > 100 | > 79.7 | > 100
15 | Oc1ccc(C(c2ccc(O)cc2)c2ccc(Cl)cn2)cc1 | 23.3 | > 86.2 | 1.06 | > 100
16 | CCCCCCCNc1nc(C(=O)OCC)ncc1-c1ccc(C(F)(F)F)cc1 | 32.1 | > 100 | 46.1 | > 100
17 | O=C1C=C(NCCNC(=S)Nc2ccccc2)c2nccc3c2c1nc1ccccc13 | 15.6 | 47.7 | 39.8 | > 100
18 | O=C(c1ccc2ccccc2c1)c1c(C(F)(F)F)n([O-])c2cc(F)c(F)cc2[n+]1=O | 1.96 | 4.12 | 1.46 | 4.33
19 | CC1(C)CC[C@H](Nc2ncc(C(F)(F)F)c(-c3c[nH]c4c(P(C)(C)=O)c(C#N)ccc34)n2)CN1 | 0.038 | 12 | 0.52 | > 36.4
20 | COc1ccc(Nc2ncc(Br)c(NCCCNC(=O)C3CCC3)n2)cc1 | 36.1 | > 100 | 20.5 | > 100
21 | COc1ccc2c(c1)/C(=C\c1cccnc1)C(=O)N2 | 35.9 | > 100 | 2.52 | 21.3
22 | CCc1n(Cc2ccc3ccccc3n2)cc[n+]1Cc1ccc2ccccc2n1 | 0.141 | 10.3 | 1.93 | 51.7
23 | Cc1c(S(C)(=O)=O)c(-c2cc(F)cc(N3CCN(c4ccc(NS(=O)(=O)c5ccc(N[C@H](CCN6CCC(C(=O)OCCCP(=O)(O)O)CC6)CSc6ccccc6)c(S(=O)(=O)C(F)(F)F)c5)cc4)CC3)c2)c(-c2ccc(Cl)cc2)n1C(C)C | > 100 | > 100 | > 100 | > 100
24 | COc1ccc(-c2nc3sc(-c4ccc(Cl)cc4)cn3n2)cc1 | > 50 | > 50 | > 50 | > 50
25 | C/C(=N\O)c1cccc(Nc2cc(-n3ccnn3)c3ccccc3n2)c1 | 15.4 | 34.2 | 17.5 | 37.2
26 | O=C1C(c2c[nH]c3ccccc23)=C(c2c[nH]c3ccccc23)C(=O)N1O | > 25 | > 25 | > 25 | > 25
